Experimental data from publication PMC7265341, “Quantifying CDK inhibitor selectivity in live cells” (Nature Communications, 2020).
Where two headings read alike, the source gives them in different places.

Key:
CDK13/Cyclin K = CDK13/Cyclin K (Homo sapiens, UniProt Q14004); assay: NanoBRET live-cell target engagement, CDK13-NanoLuc/Cyclin K in HEK-293; format: binding; details: for inhibition at 10 µM / Inhibition at 10µM (%) Replicate 1 / Inhibition at 10µM (%) Replicate 2 / Inhibition at 10µM (%) Average / Inhibition at 10µM (%): CDK13/K
CDK12/Cyclin K = CDK12/Cyclin K (Homo sapiens, UniProt Q9NYV4); assay: NanoBRET live-cell target engagement, CDK12-NanoLuc/Cyclin K in HEK-293; format: binding
[1] = 10µM, average of replicates, read-out: Inhibition at 10µM (%) Average
[2] = 10µM, read-out: Inhibition at 10µM (%) Replicate 1
[3] = 10µM, read-out: Inhibition at 10µM (%) Replicate 2
[4] = CDK12/K, 10µM, average of replicates
[5] = average, read-out: Inhibition at 10µM (%)
[6] = experiment 1, read-out: Inhibition at 10µM (%)
[7] = experiment 2, read-out: Inhibition at 10µM (%)
[8] = read-out: Inhibition at 10µM (%), CDK12/K, average
[9] = read-out: Inhibition at 10µM (%), CDK12/K, experiment 1
[10] = read-out: Inhibition at 10µM (%), CDK12/K, experiment 2
[11] = CDK12/K, average, read-out: Inhibition at 10µM (%)
[12] = CDK12/K, experiment 1, read-out: Inhibition at 10µM (%)
[13] = CDK12/K, experiment 2, read-out: Inhibition at 10µM (%)

Chain of CDK12/Cyclin K (Q9NYV4 1-1481 isoform Q9NYV4-2): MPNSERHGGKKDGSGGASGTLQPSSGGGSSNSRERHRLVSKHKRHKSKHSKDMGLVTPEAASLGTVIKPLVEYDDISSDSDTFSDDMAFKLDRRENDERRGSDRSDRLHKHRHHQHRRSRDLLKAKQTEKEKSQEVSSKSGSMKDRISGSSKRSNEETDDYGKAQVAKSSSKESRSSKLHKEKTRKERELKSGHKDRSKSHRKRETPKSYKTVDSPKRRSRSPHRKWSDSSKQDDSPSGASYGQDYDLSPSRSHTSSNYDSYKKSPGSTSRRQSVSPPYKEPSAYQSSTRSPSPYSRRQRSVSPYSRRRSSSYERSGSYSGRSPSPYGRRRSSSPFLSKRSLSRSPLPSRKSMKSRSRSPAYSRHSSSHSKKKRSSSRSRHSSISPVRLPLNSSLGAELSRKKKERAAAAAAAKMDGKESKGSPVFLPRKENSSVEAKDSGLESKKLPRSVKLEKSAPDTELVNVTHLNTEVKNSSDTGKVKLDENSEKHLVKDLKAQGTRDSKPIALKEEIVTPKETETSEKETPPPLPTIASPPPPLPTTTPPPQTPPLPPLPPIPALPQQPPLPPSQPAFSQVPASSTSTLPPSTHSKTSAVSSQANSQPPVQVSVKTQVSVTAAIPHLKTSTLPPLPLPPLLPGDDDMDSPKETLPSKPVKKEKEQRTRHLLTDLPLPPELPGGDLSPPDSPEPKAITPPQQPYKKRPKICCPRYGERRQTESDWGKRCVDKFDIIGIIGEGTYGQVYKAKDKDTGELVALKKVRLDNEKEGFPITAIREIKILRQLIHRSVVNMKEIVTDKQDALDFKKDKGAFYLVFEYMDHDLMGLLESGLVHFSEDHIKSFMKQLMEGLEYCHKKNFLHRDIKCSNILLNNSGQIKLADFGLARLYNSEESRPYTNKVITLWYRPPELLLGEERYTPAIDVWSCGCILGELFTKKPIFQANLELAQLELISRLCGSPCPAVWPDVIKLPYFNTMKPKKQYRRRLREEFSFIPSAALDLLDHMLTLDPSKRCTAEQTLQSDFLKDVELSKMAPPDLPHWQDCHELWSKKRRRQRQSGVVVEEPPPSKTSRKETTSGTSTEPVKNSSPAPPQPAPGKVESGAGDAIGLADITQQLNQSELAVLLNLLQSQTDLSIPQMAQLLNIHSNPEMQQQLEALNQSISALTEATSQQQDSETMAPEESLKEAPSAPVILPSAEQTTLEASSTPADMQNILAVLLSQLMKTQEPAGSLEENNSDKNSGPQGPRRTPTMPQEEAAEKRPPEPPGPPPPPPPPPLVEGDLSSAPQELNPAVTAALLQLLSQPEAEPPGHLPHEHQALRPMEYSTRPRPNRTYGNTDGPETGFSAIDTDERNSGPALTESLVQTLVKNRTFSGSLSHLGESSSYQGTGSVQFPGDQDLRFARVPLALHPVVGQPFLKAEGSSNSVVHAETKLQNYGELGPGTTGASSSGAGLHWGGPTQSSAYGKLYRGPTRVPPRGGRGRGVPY
Chain of CDK12/Cyclin K (O75909 whole entry partner): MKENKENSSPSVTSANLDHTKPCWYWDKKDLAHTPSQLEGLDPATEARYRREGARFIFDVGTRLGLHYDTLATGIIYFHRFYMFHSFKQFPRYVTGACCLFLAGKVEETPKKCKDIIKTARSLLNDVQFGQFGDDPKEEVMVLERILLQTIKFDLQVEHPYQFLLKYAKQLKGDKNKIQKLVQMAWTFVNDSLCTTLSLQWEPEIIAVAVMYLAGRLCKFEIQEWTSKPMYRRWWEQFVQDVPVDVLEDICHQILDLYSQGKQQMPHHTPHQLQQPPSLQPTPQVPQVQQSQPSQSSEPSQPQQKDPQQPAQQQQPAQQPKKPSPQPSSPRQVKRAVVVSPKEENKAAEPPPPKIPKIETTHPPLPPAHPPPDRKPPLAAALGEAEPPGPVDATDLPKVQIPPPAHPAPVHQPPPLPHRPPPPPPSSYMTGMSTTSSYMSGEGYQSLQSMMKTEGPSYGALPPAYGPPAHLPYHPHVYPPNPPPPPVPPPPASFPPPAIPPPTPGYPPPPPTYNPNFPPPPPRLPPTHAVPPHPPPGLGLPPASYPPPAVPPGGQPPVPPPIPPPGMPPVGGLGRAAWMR
Chain of CDK13/Cyclin K (O75909 whole entry): as the sequence (O75909 whole entry partner) above
Chain of CDK13/Cyclin K (Q14004 other isoform, or with tags, fused parts or gaps): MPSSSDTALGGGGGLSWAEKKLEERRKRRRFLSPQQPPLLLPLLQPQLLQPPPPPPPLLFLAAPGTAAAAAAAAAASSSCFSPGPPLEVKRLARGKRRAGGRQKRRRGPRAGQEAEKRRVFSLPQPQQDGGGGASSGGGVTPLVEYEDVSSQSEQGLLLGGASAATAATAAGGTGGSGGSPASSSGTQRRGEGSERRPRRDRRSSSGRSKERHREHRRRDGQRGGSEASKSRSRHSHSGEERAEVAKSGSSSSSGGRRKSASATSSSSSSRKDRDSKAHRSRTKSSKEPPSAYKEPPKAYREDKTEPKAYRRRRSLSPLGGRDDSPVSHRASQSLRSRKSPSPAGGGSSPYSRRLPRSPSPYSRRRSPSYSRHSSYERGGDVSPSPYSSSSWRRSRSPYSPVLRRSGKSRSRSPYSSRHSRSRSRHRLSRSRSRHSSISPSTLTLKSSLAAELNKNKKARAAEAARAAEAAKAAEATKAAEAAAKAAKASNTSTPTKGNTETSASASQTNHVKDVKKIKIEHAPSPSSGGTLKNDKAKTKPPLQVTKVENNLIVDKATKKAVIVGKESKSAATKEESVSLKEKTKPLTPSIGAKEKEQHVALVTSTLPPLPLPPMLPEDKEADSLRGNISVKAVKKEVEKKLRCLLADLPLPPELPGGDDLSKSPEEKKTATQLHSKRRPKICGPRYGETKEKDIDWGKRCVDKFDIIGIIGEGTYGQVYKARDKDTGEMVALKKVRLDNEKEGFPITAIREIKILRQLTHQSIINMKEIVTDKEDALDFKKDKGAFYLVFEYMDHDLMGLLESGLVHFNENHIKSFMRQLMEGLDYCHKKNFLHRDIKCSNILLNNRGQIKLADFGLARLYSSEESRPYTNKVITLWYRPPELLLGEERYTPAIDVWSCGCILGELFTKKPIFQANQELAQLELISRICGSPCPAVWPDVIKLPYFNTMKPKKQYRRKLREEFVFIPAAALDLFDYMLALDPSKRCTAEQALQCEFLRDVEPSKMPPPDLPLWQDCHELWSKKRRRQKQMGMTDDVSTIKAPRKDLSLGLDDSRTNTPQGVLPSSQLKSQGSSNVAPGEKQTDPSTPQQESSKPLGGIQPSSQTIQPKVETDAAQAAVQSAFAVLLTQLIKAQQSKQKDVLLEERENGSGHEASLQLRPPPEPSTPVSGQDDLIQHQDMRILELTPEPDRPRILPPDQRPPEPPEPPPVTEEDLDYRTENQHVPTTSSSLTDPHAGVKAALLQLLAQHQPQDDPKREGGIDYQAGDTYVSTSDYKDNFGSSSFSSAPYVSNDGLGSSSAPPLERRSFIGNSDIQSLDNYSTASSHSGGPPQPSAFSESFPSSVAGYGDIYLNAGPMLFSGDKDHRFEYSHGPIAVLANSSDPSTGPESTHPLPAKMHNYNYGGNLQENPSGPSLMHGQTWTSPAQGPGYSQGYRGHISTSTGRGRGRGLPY

With `C[C@H]1CC[C@H](n2c3cnccc3c3cnc(Nc4ccc5c(n4)CCN(C(=O)CO)C5)nc32)CC1` [AMG 925] as the molecule, how does the inhibition at 10 µM (CDK13/Cyclin K; [1]) read?
Its inhibition at 10 µM is -2.5%.

And the inhibition at 10 µM (CDK13/Cyclin K; [2])?
The inhibition at 10 µM was 3.8%.

And the inhibition at 10 µM (CDK13/Cyclin K; [3])?
The inhibition at 10 µM was -8.8%.

And the inhibition at 10 µM (CDK12/Cyclin K; read-out: Inhibition at 10µM (%) Average, CDK12/K, 10µM, average of replicates)?
The inhibition at 10 µM was 8%.

And the inhibition at 10 µM (CDK12/Cyclin K; read-out: Inhibition at 10µM (%) Replicate 1, CDK12/K, 10µM)?
Its inhibition at 10 µM is 7.8%.

What about the inhibition at 10 µM (CDK12/Cyclin K; read-out: Inhibition at 10µM (%) Replicate 2, CDK12/K, 10µM) of the same molecule?
Its inhibition at 10 µM is 8.2%.

Which results are given for `Cc1ncc(-c2ccnc(Nc3ccc(S(C)(=O)=O)cc3)n2)n1C(C)C` [AZD5438]?
inhibition at 10 µM (CDK13/Cyclin K; [1]): 15.8%; inhibition at 10 µM (CDK13/Cyclin K; [2]): 21.6%; inhibition at 10 µM (CDK13/Cyclin K; [3]): 10.1%; inhibition at 10 µM (CDK12/Cyclin K; CDK12/K, 10µM, average of replicates, read-out: Inhibition at 10µM (%) Average): 17.1%; inhibition at 10 µM (CDK12/Cyclin K; CDK12/K, 10µM, read-out: Inhibition at 10µM (%) Replicate 1): 15.7%; inhibition at 10 µM (CDK12/Cyclin K; CDK12/K, 10µM, read-out: Inhibition at 10µM (%) Replicate 2): 18.5%

For `CNC1CCN(C(=O)c2ccc(Nc3ncc(F)c(-c4cnc(C)n4C(C)C)n3)cc2)C1` (centres unmarked) [AZD5597], which “Inhibition at 10µM (%) Replicate 1” value (CDK13/Cyclin K; 10µM) is on record?
Its value is 42.5%.

And the “Inhibition at 10µM (%) Replicate 2” value (CDK13/Cyclin K; 10µM)?
The value was 57.5%.

What about the “Inhibition at 10µM (%) Average” value (CDK13/Cyclin K; 10µM, average of replicates) of the same molecule?
Its value is 50.0%.

What about the “Inhibition at 10µM (%) Replicate 1” value (CDK12/Cyclin K; CDK12/K, 10µM) of the same molecule?
The value was 44.4%.

What about the “Inhibition at 10µM (%) Replicate 2” value (CDK12/Cyclin K; CDK12/K, 10µM) of the same molecule?
Its value is 42.5%.

And the “Inhibition at 10µM (%) Average” value (CDK12/Cyclin K; [4])?
Its value is 43.5%.

With `CC(C)c1cnn2c(NCc3ccccc3)cc(N[C@@H](CO)[C@H](O)CO)nc12` [BS-194] as the molecule, how does the “Inhibition at 10µM (%) Replicate 1” value (CDK13/Cyclin K; 10µM) read?
Its value is 38.2%.

What about the “Inhibition at 10µM (%) Replicate 2” value (CDK13/Cyclin K; 10µM) of the same molecule?
The value was 46.4%.

What about the “Inhibition at 10µM (%) Average” value (CDK13/Cyclin K; 10µM, average of replicates) of the same molecule?
The value was 42.3%.

And the “Inhibition at 10µM (%) Replicate 1” value (CDK12/Cyclin K; CDK12/K, 10µM)?
Its value is 52.0%.

And the “Inhibition at 10µM (%) Replicate 2” value (CDK12/Cyclin K; CDK12/K, 10µM)?
The value was 55.6%.

And the “Inhibition at 10µM (%) Average” value (CDK12/Cyclin K; [4])?
The value was 53.8%.

And the IC50 (CDK12/Cyclin K; CDK12/K, n=2 average to 2 significant figures, read-out: IC50 (nM) Average*)?
The IC50 was 350 nM.

What about the IC50 (CDK12/Cyclin K; CDK12/K, read-out: IC50 (nM) Replicate 1) of the same molecule?
Its IC50 is 187 nM.

What about the IC50 (CDK12/Cyclin K; CDK12/K, read-out: IC50 (nM) Replicate 2) of the same molecule?
Its IC50 is 510 nM.

For `COc1ccc(F)cc1-c1cc(NC(=O)C2CCCNC2)ncc1Cl` (centres unmarked) [CDK inhibitor 2], which inhibition at 10 µM (CDK13/Cyclin K; [5]) is on record?
Its inhibition at 10 µM is 41.2%.

And the inhibition at 10 µM (CDK13/Cyclin K; [6])?
Its inhibition at 10 µM is 31.4%.

What about the inhibition at 10 µM (CDK13/Cyclin K; [7]) of the same molecule?
The inhibition at 10 µM was 51.1%.

What about the inhibition at 10 µM (CDK12/Cyclin K; [8]) of the same molecule?
The inhibition at 10 µM was 49.3%.

What about the inhibition at 10 µM (CDK12/Cyclin K; [9]) of the same molecule?
Its inhibition at 10 µM is 41%.

What about the inhibition at 10 µM (CDK12/Cyclin K; [10]) of the same molecule?
Its inhibition at 10 µM is 57.6%.

How did the “Inhibition at 10µM (%)” value (CDK13/Cyclin K; average) turn out when `CCn1cnc2c(Nc3cccc(Cl)c3)nc(N[C@@H]3CCCC[C@@H]3N)nc21` [CGP74514A] was run?
The value was 35.2%.

And the “Inhibition at 10µM (%)” value (CDK13/Cyclin K; experiment 1)?
The value was 36.4%.

And the “Inhibition at 10µM (%)” value (CDK13/Cyclin K; experiment 2)?
Its value is 33.9%.

What about the “Inhibition at 10µM (%)” value (CDK12/Cyclin K; CDK12/K, average) of the same molecule?
Its value is 36.8%.

And the “Inhibition at 10µM (%)” value (CDK12/Cyclin K; CDK12/K, experiment 1)?
The value was 42.2%.

What about the “Inhibition at 10µM (%)” value (CDK12/Cyclin K; CDK12/K, experiment 2) of the same molecule?
The value was 31.4%.

Which inhibition at 10 µM (CDK13/Cyclin K; [5]) does the source give for `CC(C)c1cnn2c(NCc3ccccc3)cc(NC[C@H]3CCNC[C@@H]3O)nc12` [CT7001] here?
Its inhibition at 10 µM is 34.1%.

What about the inhibition at 10 µM (CDK13/Cyclin K; [6]) of the same molecule?
The inhibition at 10 µM was 32.9%.

What about the inhibition at 10 µM (CDK13/Cyclin K; [7]) of the same molecule?
The inhibition at 10 µM was 35.2%.

And the inhibition at 10 µM (CDK12/Cyclin K; [11])?
Its inhibition at 10 µM is 43.6%.

And the inhibition at 10 µM (CDK12/Cyclin K; [12])?
Its inhibition at 10 µM is 42.1%.

And the inhibition at 10 µM (CDK12/Cyclin K; [13])?
Its inhibition at 10 µM is 45.2%.

How did the inhibition at 10 µM (CDK13/Cyclin K; [5]) turn out when `CN1CC[C@H](c2c(O)cc(O)c3c(=O)cc(-c4ccccc4Cl)oc23)[C@H](O)C1` [Flavopiridol] was run?
The inhibition at 10 µM was 28%.

And the inhibition at 10 µM (CDK13/Cyclin K; [6])?
Its inhibition at 10 µM is 33.4%.

And the inhibition at 10 µM (CDK13/Cyclin K; [7])?
Its inhibition at 10 µM is 22.5%.

What about the receptor occupancy at 10 µM (CDK13/Cyclin K; primary screen, live HEK-293) of the same molecule?
The receptor occupancy at 10 µM was about 50%.

And the inhibition at 10 µM (CDK12/Cyclin K; [11])?
Its inhibition at 10 µM is 48.6%.

And the inhibition at 10 µM (CDK12/Cyclin K; [12])?
The inhibition at 10 µM was 51.7%.

And the inhibition at 10 µM (CDK12/Cyclin K; [13])?
The inhibition at 10 µM was 45.6%.

And the receptor occupancy at 10 µM (CDK12/Cyclin K; primary screen, live HEK-293, read-out: CDK12 occupancy at 10 µM)?
The receptor occupancy at 10 µM was about 50%.

`CN1CCN(Cc2ccc(NC(=O)Nc3ccc(Oc4ccnc(N)n4)cc3)cc2C(F)(F)F)CC1` [K03861] was tested. Which inhibition at 10 µM (CDK13/Cyclin K; [5]) did it give?
Its inhibition at 10 µM is 36.6%.

What about the inhibition at 10 µM (CDK13/Cyclin K; [6]) of the same molecule?
Its inhibition at 10 µM is 32.4%.

What about the inhibition at 10 µM (CDK13/Cyclin K; [7]) of the same molecule?
Its inhibition at 10 µM is 40.8%.

What about the inhibition at 10 µM (CDK12/Cyclin K; [11]) of the same molecule?
The inhibition at 10 µM was 43.7%.

And the inhibition at 10 µM (CDK12/Cyclin K; [12])?
Its inhibition at 10 µM is 39%.

And the inhibition at 10 µM (CDK12/Cyclin K; [13])?
Its inhibition at 10 µM is 48.3%.

How did the inhibition at 10 µM (CDK13/Cyclin K; [5]) turn out when `COc1ccccc1-c1cc(Nc2cccc(CS(N)(=O)=O)c2)ncn1` [LDC000067] was run?
Its inhibition at 10 µM is 10.2%.

What about the inhibition at 10 µM (CDK13/Cyclin K; [6]) of the same molecule?
The inhibition at 10 µM was 7.7%.

And the inhibition at 10 µM (CDK13/Cyclin K; [7])?
The inhibition at 10 µM was 12.8%.

And the inhibition at 10 µM (CDK12/Cyclin K; [8])?
The inhibition at 10 µM was 22.1%.

What about the inhibition at 10 µM (CDK12/Cyclin K; [9]) of the same molecule?
Its inhibition at 10 µM is 7%.

And the inhibition at 10 µM (CDK12/Cyclin K; [10])?
The inhibition at 10 µM was 37.2%.

How did the “Inhibition at 10µM (%)” value (CDK13/Cyclin K; average) turn out when `CC(C)c1cnn2c(NCc3ccccc3-n3cccn3)nc(OC3CCCNC3)nc12` (centres unmarked) [LDC4297] was run?
The value was 24.9%.

What about the “Inhibition at 10µM (%)” value (CDK13/Cyclin K; experiment 1) of the same molecule?
The value was 20.0%.

And the “Inhibition at 10µM (%)” value (CDK13/Cyclin K; experiment 2)?
Its value is 29.8%.

What about the “Inhibition at 10µM (%)” value (CDK12/Cyclin K; CDK12/K, average) of the same molecule?
Its value is 18.0%.

And the “Inhibition at 10µM (%)” value (CDK12/Cyclin K; CDK12/K, experiment 1)?
The value was 25.5%.

What about the “Inhibition at 10µM (%)” value (CDK12/Cyclin K; CDK12/K, experiment 2) of the same molecule?
The value was 10.4%.
